Test results: ChEMBL document CHEMBL1201862, “PubChem BioAssay data set” (2004)
Activity calls are given as the source filed them.

What was measured:
[1] = target: Cytochrome P450 2C9 (Homo sapiens, UniProt P11712)
[2] = microbe, parasite or virus in culture; assay type: functional; details: Mycobacterium tuberculosis
[3] = target: Cytochrome P450 2C19 (Homo sapiens, UniProt P33261); test: Cytochrome panel assay with activity outcomes. Panel member name: p450-cyp2c19 Compounds with AC50 equal or less than 10 uM are considered active; assay type: functional; details: read-out: AC50
[4] = target: Cytochrome P450 3A4 (Homo sapiens, UniProt P08684);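 also: CYP3A4 tested as one member of a cytochrome P450 panel screen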
[5] = target: T1, Replicative DNA helicase DnaB (Mycobacterium tuberculosis, UniProt P9WMR3); test: DnaB intein splicing inhibitors, dose response, biochemical, cell-free fluorescence (AID 449749); assay type: functional
T1 sequence (P9WMR3 whole entry): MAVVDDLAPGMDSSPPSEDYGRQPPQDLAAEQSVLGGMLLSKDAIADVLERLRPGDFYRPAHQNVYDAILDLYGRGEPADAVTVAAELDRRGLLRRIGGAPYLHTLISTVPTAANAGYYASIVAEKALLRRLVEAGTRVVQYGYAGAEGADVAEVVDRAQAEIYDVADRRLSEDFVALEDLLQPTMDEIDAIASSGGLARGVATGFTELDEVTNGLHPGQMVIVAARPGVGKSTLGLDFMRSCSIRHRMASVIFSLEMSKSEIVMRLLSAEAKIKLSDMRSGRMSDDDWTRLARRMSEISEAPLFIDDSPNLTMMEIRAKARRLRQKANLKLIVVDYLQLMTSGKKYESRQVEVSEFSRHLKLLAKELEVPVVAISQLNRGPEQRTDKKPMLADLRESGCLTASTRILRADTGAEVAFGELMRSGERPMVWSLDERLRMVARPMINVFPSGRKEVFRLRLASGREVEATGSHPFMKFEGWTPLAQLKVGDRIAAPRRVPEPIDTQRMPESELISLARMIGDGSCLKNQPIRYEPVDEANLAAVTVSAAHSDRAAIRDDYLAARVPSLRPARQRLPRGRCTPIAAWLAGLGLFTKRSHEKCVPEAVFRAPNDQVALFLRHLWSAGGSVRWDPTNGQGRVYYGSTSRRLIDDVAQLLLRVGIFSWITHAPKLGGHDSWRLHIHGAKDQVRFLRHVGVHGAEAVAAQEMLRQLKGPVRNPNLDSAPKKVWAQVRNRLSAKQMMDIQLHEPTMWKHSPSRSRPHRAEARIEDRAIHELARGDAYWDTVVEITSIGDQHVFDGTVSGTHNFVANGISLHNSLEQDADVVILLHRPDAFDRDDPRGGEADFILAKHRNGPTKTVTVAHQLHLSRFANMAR

[6] = target: T2, Protein RecA (Mycobacterium tuberculosis, UniProt P9WHJ3); test: Fluorescence Cell-Free Homogeneous Dose Retest to Identify Inhibitors of RecA-Intein Splicing Activity. [Related pubchem assays (depositor defined):AID2097, AID2223, AID489010, AID492950]; assay type: functional
T2 sequence (P9WHJ3 whole entry): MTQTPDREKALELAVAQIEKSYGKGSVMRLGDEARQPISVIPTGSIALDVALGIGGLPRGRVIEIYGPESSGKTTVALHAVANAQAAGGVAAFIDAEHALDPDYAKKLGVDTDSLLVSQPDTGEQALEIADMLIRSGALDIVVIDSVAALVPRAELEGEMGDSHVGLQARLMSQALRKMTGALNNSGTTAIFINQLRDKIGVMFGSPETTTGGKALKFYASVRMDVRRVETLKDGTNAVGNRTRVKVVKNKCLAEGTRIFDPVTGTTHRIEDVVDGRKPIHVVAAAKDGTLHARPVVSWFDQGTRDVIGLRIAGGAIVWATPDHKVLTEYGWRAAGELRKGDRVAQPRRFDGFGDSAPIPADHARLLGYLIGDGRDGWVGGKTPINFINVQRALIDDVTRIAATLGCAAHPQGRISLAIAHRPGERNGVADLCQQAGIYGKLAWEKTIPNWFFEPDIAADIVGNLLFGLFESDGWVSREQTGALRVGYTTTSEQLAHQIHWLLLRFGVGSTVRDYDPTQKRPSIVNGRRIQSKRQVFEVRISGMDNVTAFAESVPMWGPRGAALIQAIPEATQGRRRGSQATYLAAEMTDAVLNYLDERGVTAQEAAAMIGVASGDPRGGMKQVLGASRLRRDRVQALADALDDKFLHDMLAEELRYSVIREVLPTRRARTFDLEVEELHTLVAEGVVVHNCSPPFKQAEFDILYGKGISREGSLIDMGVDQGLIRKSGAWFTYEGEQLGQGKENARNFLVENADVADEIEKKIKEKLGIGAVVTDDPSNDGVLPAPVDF

[7] = target: T3, Heat shock factor protein 1 (Mus musculus, UniProt P38532); test: enhancement of HSF1-driven luciferase signal – cell-based, NIH3T3, luminescence, dose retest, confirmation (AID 435004); assay type: functional;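 also: stress induced by proteasome inhibitor MG132 added 30 min after compound; luciferase reporter driven by HSF1 response element in NIH3T3 cells; actives raise luminescence as potentiators of the MG132 stress response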
T3 sequence (P38532 whole entry): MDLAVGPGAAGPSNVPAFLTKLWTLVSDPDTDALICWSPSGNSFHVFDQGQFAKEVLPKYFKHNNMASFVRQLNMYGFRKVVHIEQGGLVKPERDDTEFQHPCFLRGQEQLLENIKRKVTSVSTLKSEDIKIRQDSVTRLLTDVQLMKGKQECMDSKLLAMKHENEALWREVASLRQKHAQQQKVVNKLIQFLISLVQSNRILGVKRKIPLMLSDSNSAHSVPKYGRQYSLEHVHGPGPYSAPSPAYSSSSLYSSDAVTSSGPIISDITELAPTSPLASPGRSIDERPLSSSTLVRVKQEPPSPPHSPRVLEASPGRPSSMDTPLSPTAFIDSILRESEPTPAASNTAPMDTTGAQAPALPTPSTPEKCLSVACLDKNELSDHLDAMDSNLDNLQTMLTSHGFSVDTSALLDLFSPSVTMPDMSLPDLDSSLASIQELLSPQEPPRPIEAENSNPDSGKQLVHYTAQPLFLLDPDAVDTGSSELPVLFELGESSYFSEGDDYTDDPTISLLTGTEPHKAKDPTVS

[8] = target: Induced myeloid leukemia cell differentiation protein Mcl-1 (Homo sapiens, UniProt Q07820); assay type: functional
[9] = P. falciparum Dd2 growth inhibitors, dose response, SYBR Green, cherry-picked samples (AID 1159567); assay type: functional, cell-based
[10] = target: Cytochrome P450 2D6 (Homo sapiens, UniProt P10635);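 also: CYP2D6 member of a cytochrome P450 panel assay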
[11] = Luminescence Cell-Based Dose Retest to Confirm Inhibitors of Cancer Stem Cells. [Related pubchem assays (depositor defined):AID2717, AID2721]; assay type: functional; details: Homo sapiens
[12] = target: T4, Cytochrome P450 1A2 (Homo sapiens, UniProt P05177);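 also: PubChem cytochrome P450 panel assay, CYP1A2 panel member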
T4 sequence (P05177 whole entry): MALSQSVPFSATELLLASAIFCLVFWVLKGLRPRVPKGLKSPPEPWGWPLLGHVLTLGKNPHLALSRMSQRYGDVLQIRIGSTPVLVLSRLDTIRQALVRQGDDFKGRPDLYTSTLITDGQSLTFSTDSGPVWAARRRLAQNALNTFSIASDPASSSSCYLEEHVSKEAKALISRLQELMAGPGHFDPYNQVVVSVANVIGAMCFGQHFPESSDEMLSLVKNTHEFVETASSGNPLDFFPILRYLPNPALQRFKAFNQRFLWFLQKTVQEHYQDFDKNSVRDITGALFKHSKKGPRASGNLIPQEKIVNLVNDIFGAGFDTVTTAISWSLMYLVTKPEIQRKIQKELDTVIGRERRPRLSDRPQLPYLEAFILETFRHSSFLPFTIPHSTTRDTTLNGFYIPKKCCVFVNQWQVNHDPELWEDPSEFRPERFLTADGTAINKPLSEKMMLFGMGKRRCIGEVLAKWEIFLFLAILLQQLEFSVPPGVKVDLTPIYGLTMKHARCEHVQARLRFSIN

[13] = system: Streptococcus sp. 'group A'; test: Streptococcus pyogenes SK(-)GAS viability under kanamycin – luminescence, BacTiterGlo, confirmation, counter-screen for streptokinase expression inhibitor project, dose response (AID 1900); assay type: functional, organism-based
[14] = target: T5, Streptokinase A (Streptococcus pyogenes serotype M1, UniProt P10520); test: viability-normalized secreted streptokinase activity reduction – plasminogen activation absorbance, OD405, dose response (AID 1914); assay type: functional, Streptococcus pyogenes M1 GAS;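 also: secreted streptokinase activity via plasminogen activation per viability signal from cell pellet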
T5 sequence (P10520 whole entry): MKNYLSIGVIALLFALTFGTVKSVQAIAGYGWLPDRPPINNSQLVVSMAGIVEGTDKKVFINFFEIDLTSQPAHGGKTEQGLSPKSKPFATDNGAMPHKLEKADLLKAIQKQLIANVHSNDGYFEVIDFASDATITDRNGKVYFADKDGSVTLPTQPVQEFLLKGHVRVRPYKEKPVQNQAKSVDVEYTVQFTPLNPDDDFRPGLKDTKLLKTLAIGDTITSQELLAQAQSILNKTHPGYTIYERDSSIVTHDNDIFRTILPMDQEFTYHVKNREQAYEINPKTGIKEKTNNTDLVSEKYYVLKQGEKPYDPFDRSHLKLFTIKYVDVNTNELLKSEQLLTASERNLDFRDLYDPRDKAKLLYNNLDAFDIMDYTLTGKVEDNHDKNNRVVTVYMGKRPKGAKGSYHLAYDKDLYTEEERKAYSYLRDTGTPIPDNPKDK

[15] = system: Streptococcus; test: GAS UMAA2166 growth inhibition – luminescence, BacTiterGlo, counter-screen for streptokinase expression inhibitor project, dose response (AID 1915); assay type: functional, organism-based;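 also: potency for reduction of bacterial viability or growth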

Induced myeloid leukemia cell differentiation protein Mcl-1, sequence (Q07820 whole entry): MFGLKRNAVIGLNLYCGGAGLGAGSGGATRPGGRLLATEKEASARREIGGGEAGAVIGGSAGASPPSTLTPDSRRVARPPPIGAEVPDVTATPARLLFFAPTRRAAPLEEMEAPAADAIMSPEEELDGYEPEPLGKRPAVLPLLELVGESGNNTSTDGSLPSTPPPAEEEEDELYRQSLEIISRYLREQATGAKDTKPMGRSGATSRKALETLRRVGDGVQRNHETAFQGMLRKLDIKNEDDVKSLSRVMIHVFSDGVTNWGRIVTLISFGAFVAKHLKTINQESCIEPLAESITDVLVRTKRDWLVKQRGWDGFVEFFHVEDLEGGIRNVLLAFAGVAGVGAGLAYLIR
Cytochrome P450 2C9, sequence (P11712 whole entry): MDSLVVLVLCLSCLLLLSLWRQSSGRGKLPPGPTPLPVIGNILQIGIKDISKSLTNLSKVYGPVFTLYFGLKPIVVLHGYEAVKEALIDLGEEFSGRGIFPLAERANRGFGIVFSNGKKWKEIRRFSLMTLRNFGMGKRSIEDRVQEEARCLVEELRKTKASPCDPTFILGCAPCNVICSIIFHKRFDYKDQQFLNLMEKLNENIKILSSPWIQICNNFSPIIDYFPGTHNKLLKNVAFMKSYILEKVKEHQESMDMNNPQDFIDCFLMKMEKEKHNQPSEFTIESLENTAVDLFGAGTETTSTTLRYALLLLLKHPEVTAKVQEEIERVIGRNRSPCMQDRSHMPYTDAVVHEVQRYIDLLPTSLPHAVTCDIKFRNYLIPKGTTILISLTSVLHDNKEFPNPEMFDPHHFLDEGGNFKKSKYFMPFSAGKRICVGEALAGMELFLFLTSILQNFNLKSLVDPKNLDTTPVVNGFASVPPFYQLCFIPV
Cytochrome P450 3A4, sequence (P08684 whole entry): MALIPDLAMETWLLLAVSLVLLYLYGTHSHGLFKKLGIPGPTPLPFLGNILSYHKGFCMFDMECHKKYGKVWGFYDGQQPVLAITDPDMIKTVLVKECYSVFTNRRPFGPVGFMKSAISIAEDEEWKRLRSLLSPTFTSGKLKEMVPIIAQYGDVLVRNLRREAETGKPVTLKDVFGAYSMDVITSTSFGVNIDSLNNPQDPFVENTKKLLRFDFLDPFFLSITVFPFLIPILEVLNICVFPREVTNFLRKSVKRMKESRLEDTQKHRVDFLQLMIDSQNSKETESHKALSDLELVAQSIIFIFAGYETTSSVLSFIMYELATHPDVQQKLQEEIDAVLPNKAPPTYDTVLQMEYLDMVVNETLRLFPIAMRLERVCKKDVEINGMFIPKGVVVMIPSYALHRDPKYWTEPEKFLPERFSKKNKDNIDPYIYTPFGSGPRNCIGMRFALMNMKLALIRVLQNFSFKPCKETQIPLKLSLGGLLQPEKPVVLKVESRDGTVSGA
Cytochrome P450 2D6, sequence (P10635 whole entry): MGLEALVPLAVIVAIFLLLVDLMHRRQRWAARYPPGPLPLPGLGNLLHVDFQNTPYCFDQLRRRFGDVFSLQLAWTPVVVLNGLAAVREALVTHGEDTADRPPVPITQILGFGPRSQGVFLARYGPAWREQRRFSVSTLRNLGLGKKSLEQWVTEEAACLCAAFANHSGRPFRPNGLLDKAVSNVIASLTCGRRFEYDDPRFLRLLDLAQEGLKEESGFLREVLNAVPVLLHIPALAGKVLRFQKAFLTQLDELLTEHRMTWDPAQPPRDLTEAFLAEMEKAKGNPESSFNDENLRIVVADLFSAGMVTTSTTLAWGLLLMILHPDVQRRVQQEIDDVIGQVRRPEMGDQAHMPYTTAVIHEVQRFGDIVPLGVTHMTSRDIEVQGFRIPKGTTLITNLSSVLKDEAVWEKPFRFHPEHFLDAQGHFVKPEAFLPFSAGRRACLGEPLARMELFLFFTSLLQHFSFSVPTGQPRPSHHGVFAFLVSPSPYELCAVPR
Cytochrome P450 2C19, sequence (P33261 whole entry): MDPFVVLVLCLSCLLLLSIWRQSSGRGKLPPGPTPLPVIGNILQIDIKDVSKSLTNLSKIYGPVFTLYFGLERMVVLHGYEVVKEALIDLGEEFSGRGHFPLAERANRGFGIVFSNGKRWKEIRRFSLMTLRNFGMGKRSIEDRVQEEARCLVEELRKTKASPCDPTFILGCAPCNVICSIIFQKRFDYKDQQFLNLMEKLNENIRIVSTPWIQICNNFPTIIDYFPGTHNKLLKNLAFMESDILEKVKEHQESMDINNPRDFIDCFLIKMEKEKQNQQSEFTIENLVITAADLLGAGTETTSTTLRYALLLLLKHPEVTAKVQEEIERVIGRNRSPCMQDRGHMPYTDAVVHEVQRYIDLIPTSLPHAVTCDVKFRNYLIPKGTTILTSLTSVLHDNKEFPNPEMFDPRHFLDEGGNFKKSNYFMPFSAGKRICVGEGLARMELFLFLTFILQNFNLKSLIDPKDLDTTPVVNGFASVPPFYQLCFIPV

In the case of `N[C@@H](Cc1ncccn1)C(=O)O`, the AC50 [1] is reported as “inconclusive”.
For `CCc1c(C)sc2nc3c(C(=O)N4CCOCC4)cc(C(=O)c4cc(F)ccc4O)cn3c(=O)c12`, the CC50 [2] was > 40 µM (active).
In the case of `CCOC(=O)N1CCN(C(=O)c2ccc(OC)c(OC)c2)CC1`, the AC50 [3] is reported as 25.1 µM (inconclusive) and the AC50 [1] is reported as “inconclusive”.
In the case of `O=c1c(-c2cc(F)cc(F)c2)nc2cncnc2n1C1CC1`, the AC50 [4] is reported as 7.94 µM (inconclusive) and the AC50 [1] is reported as “inconclusive”.
With `COCc1n[nH]c2c1C(c1ccsc1)C(C#N)=C(N)O2` (centres undefined) the AC50 [5] was 21.1 µM (active) and the EC50 [6] was 4.35 µM (active).
In the case of `Cn1c(=O)c(C(=O)NNC(=O)c2cccc(Cl)c2)c(O)c2ccccc21`, the CC50 [2] is reported as > 40 µM (active).
For `CCOC(=O)c1c(NC(C)=O)sc2c1CCC(/C=N/CCCN(CC)CC)=C2Sc1ccccc1`, the EC50 [7] was 16.6 µM (active), the AC50 [5] was 0.239 µM (active) and the EC50 [6] was 0.229 µM (active).
For `CN(C)c1ccc(/C=c2\sc3nc(-c4ccccc4)nn3c2=O)cc1`, the IC50 [8] was 5.67 µM (active).
With `O=C(CCN1C(=O)c2cccc3cccc(c23)C1=O)N1CCN(Cc2ccc3c(c2)OCO3)CC1` the AC50 [1] was “inconclusive”.
With `O=C(Nc1ccc(N2CCOCC2)cc1)Nc1ccc2nsnc2c1` the AC50 [5] was 170 µM (active) and the EC50 [6] was > 380 µM (inactive).
For `CCN(c1ccc(NC(=O)CCNC(=O)c2ccco2)cc1)C(C)C`, the IC50 [8] was 3.29 µM (not active).
In the case of `COc1ccc(N(C(=O)COc2cccc(C)c2)S(=O)(=O)c2ccc(C)cc2)cc1`, the AC50 [5] is reported as 4.29 µM (active) and the EC50 [6] is reported as 4.53 µM (active).
With `COc1ccccc1NC(=O)N(C)C[C@H]1OCc2ccccc2-c2c(n(C)c3ccccc23)C(=O)N([C@@H](C)CO)C[C@@H]1C` the AC50 [9] was 4.25 µM (active).
In the case of `Cc1nc([N+](=O)[O-])c(Sc2nc3ccccc3[nH]2)n1Cc1ccccc1`, the AC50 [5] is reported as 15.3 µM (active) and the EC50 [6] is reported as 12.3 µM (active).
In the case of `O=C(Nc1ccc(Cl)cc1)N(Cc1nc(O)c2ccccc2n1)Cc1cccs1`, the CC50 [2] is reported as > 40 µM (active).
For `Cc1cnc(CNc2ncnc3ccc(-c4cccc(NS(C)(=O)=O)c4)cc23)cn1`, the AC50 [10] was 25.1 µM (inconclusive) and the AC50 [1] was “inconclusive”.
With `Cc1nn(-c2ccccc2)c(O)c1/C=N/N1CCOCC1` the AC50 [5] was 39.3 µM (active) and the EC50 [6] was 31.7 µM (active).
For `Cc1cccc(S(=O)(=O)C(C#N)c2nc3ccccc3nc2N2CCCC2)c1` (centres undefined), the EC50 [6] was > 380 µM (inactive).
With `Cc1ccccc1-c1nc(C[S+]([O-])CC(=O)NCCCN(C)c2ccccc2)c(C)o1` (centres undefined) the AC50 [10] was 25.1 µM (inconclusive) and the AC50 [1] was “inconclusive”.
For `O=C(Nc1ccn(Cc2ccccc2F)n1)c1ccc(COc2ccccc2Cl)cc1`, the CC50 [2] was > 40 µM (active) and the AC50 [11] was 1.02 µM (active).
With `Cc1cc(=O)oc2cc(Oc3ccc([N+](=O)[O-])cc3C(F)(F)F)ccc12` the CC50 [2] was > 40 µM (active).
In the case of `CCC(=O)Nc1ccc2c(c1)OC[C@@H](C)N(Cc1ccccc1)C[C@@H](C)[C@H](OC)CN(C)C2=O`, the AC50 [9] is reported as 5.57 µM (active).
With `COC(=O)c1ccc(/N=C2\C(Cl)=C(O)OC2OC(=O)c2ccccc2)cc1` (centres undefined) the AC50 [5] was 10.9 µM (active) and the EC50 [6] was 17.8 µM (active).
For `COc1ccc(C)cc1NC(=O)c1cc2cc3ccc(C)cc3nc2o1`, the AC50 [12] was 1.26 µM (inconclusive) and the AC50 [1] was “inconclusive”.
With `CCn1nc(NC(=O)c2ccncc2)c2cc3cc(C)ccc3nc21` the EC50 [13] was 1.88 µM (active), the EC50 [14] was > 150 µM (not active) and the CC50 [2] was > 40 µM (active). The EC50 [15] was 11.4 µM (active).
For `O=C1OCCC1Sc1nnc(-c2ccc(O)cc2)o1` (centres undefined), the AC50 [4] was 7.08 µM (inconclusive) and the AC50 [1] was “inconclusive”.
With `COCC(=O)Nc1ccc2c(c1)OC[C@H](C)N(Cc1ccncc1)C[C@H](C)[C@@H](OC)CN(C)C2=O` the AC50 [9] was 25.2 µM (active).
For `CCn1nc(C)c(/C=N/NC(=O)Cc2ccc(Cl)cc2)c1C`, the IC50 [8] was < 0.4 µM (not active).
For `Cc1ccc(C)c(NC(=O)c2cc(-c3ccccc3)nn2-c2ccccc2)c1`, the CC50 [2] was > 40 µM (active) and the AC50 [11] was 33.9 µM (active).
With `COc1ccc2c3c(n(C)c2c1)[C@H](CO)N(C(=O)C1CC1)CC31CN(C(=O)C2CCOCC2)C1` the AC50 [9] was 22.6 µM (active).
